Assay results from US20260223841A1 (priority 2023, published 2026).
Where two headings read alike, the source gives them in different places.

Legend:
[1] = system: Erwinia amylovora EPS101; assay type: cell-based
[2] = system: Xylella fastidiosa subsp. fastidiosa IVIA5387.2; assay type: in vivo, Prunus dulcis; details: 33 mg/ml trunk microinjection, 2 mg/plant, preventive + curative
[3] = system: Liberibacter crescens strain BT-1 (cultured surrogate for Candidatus Liberibacter spp.); details: 100 and 250 μg/ml; 30 or 120 minutes of contact
[4] = system: Liberibacter crescens strain BT-1 (cultured surrogate for Candidatus Liberibacter spp.); test: microbe, parasite or virus in culture; details: 0.5 h, read-out: minimum bactericidal concentration (MBC)
[5] = system: Xylella fastidiosa subsp. fastidiosa IVIA5387.2
[6] = system: Xylella fastidiosa subsp. pauca DeDonno; test: microbe, parasite or virus in culture; assay type: cell-based; details: 0.5 h, read-out: minimum bactericidal concentration (MBC)
[7] = system: Xylella fastidiosa subsp. multiplex IVIA5901; test: microbe, parasite or virus in culture; assay type: cell-based; details: 0.5 h, read-out: minimum bactericidal concentration (MBC)
[8] = system: Xylella fastidiosa subsp. fastidiosa IVIA5387.2; test: microbe, parasite or virus in culture; details: 0.5 h, read-out: minimum bactericidal concentration (MBC)
[9] = 50 μg/ml, after 30 min of contact
[10] = 50 μg/ml, after 120 min of contact

SMILES: CCCCCCCCCCCC(=O)OCC(O)CO (stereo not shown) [Compound of formula (I), 2,3-dihydroxypropyl dodecanoate]
- bactericidal effect (bacterial growing, not quantitative) [1]: no bactericidal effect
- severity scale score (almond leaf scorch, 0-5) ([2]; 55 days after infection): 0.11
- severity scale score (almond leaf scorch, 0-5) ([2]; 62 days after infection): 0.44
- severity scale score (almond leaf scorch, 0-5) ([2]; 82 days after infection): 0.42
- severity scale score (almond leaf scorch, 0-5) ([2]; 115 days after infection): 1.17
- severity scale score (almond leaf scorch, 0-5) ([2]; 140 days after infection): 2.33
- mortality (no growth observed) [3]: about 100%
- MBC [4]: < 100 µg/mL
- survival [5, 9]: about 27.6%
- survival (log CFU/ml) [5, 9]: 2.26 log CFU/ml
- survival [5, 10]: ~23.1%
- survival (Log CFU/ml) [5, 10]: 1.87 Log CFU/ml
- mortality (no growth observed) ([5]; 100 and 75 μg/ml, 30 or 120 minutes of contact): about 100%
- MBC [6]: < 250 µg/mL
- MBC [7]: < 250 µg/mL
- MBC [8]: ~50 µg/mL
